Laboratory results: patent US20220348572A1, “BRIDGED HETEROCYCLYL-SUBSTITUTED PYRIMIDINE COMPOUND, PREPARATION METHOD THEREFOR, AND PHARMACEUTICAL USE THEREOF” (The National Institutes of Pharmaceutical R&D Co., Ltd., priority 2019, published 2022)

Legend:
JAK1 kinase = biological target: T1, JAK1 kinase (Homo sapiens, UniProt P23458); experiment: In vitro inhibitory activity on JAK1 kinase (ADP-Glo Kinase Assay); assay type: biochemical; details: JAK1 kinase 4 nM, 1 mM ATP
T1 construct: purchased Invitrogen PV4744
Method in brief: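 JAK1 (4 nM final) preincubated with compound 15 min at 25° C., then substrate mix (1 mM ATP, IRS1 0.05 mg/ml) added for 60 min at 25° C. ADP-Glo luminescence read-out; top concentration 10 μM, 3-fold, 10 points, duplicates; IC50 reported in ranged classes.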

AIA in rats = experiment: Pharmacodynamic study for AIA in rats (complete Freund's adjuvant, joint swelling score); assay type: in vivo, Lewis rats; details: for Scoring value Day 1: Day 1, Mean ± SD; for Scoring value Day 1 / Scoring value Day 3 / Scoring value Day 7: AIA Lewis rats; for Scoring value Day 3: Day 3, Mean ± SD; for Scoring value Day 7: Day 7, Mean ± SD; for symptoms of arthritis induced by complete Freund's adjuvant (in words): AIA model in rats
Excerpt: Test Example 4: Pharmacodynamic Studies of the Compounds of Example 1, Example 1-b and Example 3 for AIA in Rats
Experimental material: complete Freund's adjuvant (Chondrex, 7027)
Experimental process: The in vivo efficacy of the compounds of the invention was investigated. 8-Week-old female Lewis rats were selected for modeling by complete Freund's adjuvant (J. of Immunology, 2010, 184: 5298-5307) and grouped after 12 days. 7 groups were divided: the model group, the Example 1 low dose group (3 mg/kg), the Example 1 high dose group (30 mg/kg), the Example 1-b low dose group (1 mg/kg), the Example 1-b high dose group (3 mg/kg), the Example 3 low dose group (3 mg/kg) and the Example 3 high dose group (30 mg/kg). The model group was given 0.5% CMC-Na and the rest groups were given the corresponding dose of the compound. The animals were scored according to the degree of joint swelling after 7 days of oral administration (Proc Soc Exp Bio Med 1962, 111: 544-547).

[1] = Pharmacokinetic study in rats after oral administration; assay type: in vivo, SD rats; details: for pharmacokinetic parameters (in words): oral administration in SD rats; for AUC(0-t) / Cmax: rat, male SD rats, oral 5 mg/kg, plasma
Experimental: Experimental Example 5: Pharmacokinetic Studies of the Compounds of Example 1, Example 1-a, Example 1-b and Example 3 in Rats In order to investigate the blood concentration and pharmacokinetic parameters of the compounds of the present invention after oral administration, the corresponding LC/MS/MS assay and plasma treatment methods were developed for the compounds of the Experimental Examples. […] Male SD rats were orally administered at a dose of 5 mg/kg. Blood was orbitally collected and anticoagulated with sodium heparin. The plasma was deproteinated with acetonitrile. The samples were analyzed by LC/MS/MS method. Wherein, AUC<1000 μg/L*h is shown as C, AUC between 1000-2000 μg/L*h is shown as B, AUC>2000 μg/L*h is shown as A; Cmax<600 μg/L is shown as C, Cmax between 600-900 μg/L is shown as B, and Cmax>900 μg/L is shown as A.

T1 sequence (P23458 866-1154 limits assumed): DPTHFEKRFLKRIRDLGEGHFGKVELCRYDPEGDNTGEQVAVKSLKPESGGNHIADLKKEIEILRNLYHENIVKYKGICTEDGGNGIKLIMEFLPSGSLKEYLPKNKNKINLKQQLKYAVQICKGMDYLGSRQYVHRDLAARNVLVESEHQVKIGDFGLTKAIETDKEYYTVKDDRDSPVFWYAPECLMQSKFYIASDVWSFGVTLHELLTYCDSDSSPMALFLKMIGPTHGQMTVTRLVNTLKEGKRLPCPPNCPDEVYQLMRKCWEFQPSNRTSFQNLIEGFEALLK

Row | SMILES | IC50 (JAK1 kinase) [nM] | Scoring value Day 1 (AIA in rats; 1 mg/kg oral) | Scoring value Day 3 (AIA in rats; 1 mg/kg oral) | Scoring value Day 7 (AIA in rats; 1 mg/kg oral) | Scoring value Day 1 (AIA in rats; 3 mg/kg oral) | Scoring value Day 3 (AIA in rats; 3 mg/kg oral) | Scoring value Day 7 (AIA in rats; 3 mg/kg oral) | symptoms of arthritis induced by complete Freund's adjuvant (in words) (AIA in rats) | pharmacokinetic parameters (in words) [1] | AUC(0-t) [1] [ng·h/mL] | Cmax [1] [ng/mL] | Scoring value Day 1 (AIA in rats; 30 mg/kg oral) | Scoring value Day 3 (AIA in rats; 30 mg/kg oral) | Scoring value Day 7 (AIA in rats; 30 mg/kg oral)
1 | Cn1cc(Nc2nccc(C3=C[C@H]4CC[C@@H](C3)N4C(=O)[C@@H]3CC3(F)F)n2)cn1 [Compound 1-b, ((S)-2,2-difluorocyclopropyl)((1R,5S)-3-(2-((1-methyl-1H-pyrazol-4-yl)amino)pyrimidin-4-yl)-8-azabicyclo[3.2.1]oct-2-en-8-yl)methanone] | < 100 | 3.30 ± 2.67 | 3.10 ± 3.51 | 3.30 ± 3.71 | 3.30 ± 2.67 | 0.30 ± 0.95 | 1.50 ± 3.75 | significantly inhibit | good pharmacokinetic parameters | > 2000 | > 900 |  |  | 
2 | Cn1cc(Nc2nccc(C3=CC4CCC(C3)N4C(=O)NCC(F)(F)F)n2)cn1 (stereo not drawn) [Compound 3, 3-(2-((1-methyl-1H-pyrazol-4-yl)amino)pyrimidin-4-yl)-N-(2,2,2-trifluoroethyl)-8-azabicyclo[3.2.1]oct-2-ene-8-carboxamide] | 100 to 300 |  |  |  | 3.78 ± 1.92 | 3.78 ± 1.72 | 1.33 ± 0.87 | significantly inhibit | good pharmacokinetic parameters | 1000 to 2000 | 600 to 900 | 3.44 ± 1.94 | 0.56 ± 0.53 | 0.00 ± 0.00
3 | Cn1cc(Nc2nccc(C3=CC4CCC(C3)N4C(=O)[C@@H]3CC3(F)F)n2)cn1 (stereo partly drawn) [Compound 1, ((S)-2,2-difluorocyclopropyl)(3-(2-((1-methyl-1H-pyrazol-4-yl)amino)pyrimidin-4-yl)-8-azabicyclo[3.2.1]oct-2-en-8-yl)methanone] | < 100 |  |  |  | 3.78 ± 2.54 | 2.67 ± 1.22 | 0.22 ± 0.44 | significantly inhibit | good pharmacokinetic parameters | > 2000 | > 900 | 4.11 ± 2.52 | 0.44 ± 0.73 | 0.00 ± 0.00
